Data as given in patent US8496942B2, “Therapeutic peptides and uses thereof” (priority 2006, dated 2013).
Where a SMILES comes first, the peptide text is derived from it.

Experiments:
[1] = test system: lectins (HP, GS, WGA, DB, UEA1, SNA1, MAA, concanavalin A); experiment: Lectin binding, panel of lectins (valency and specificity); conditions: seven lectins, equal number of HPSLK sequences per well, FIG. 4
Source text: Each assay used the same basic procedure.
FIG. 6 illustrates the specificity with which the quadravalent peptide constructs bind to different lectins.

[2] = test system: PBMCs; experiment: Induction of cytokine release from PBMCs (membrane antibody array); assay type: cell-based, human; conditions: PBMC medium, 4 hr, 100 nM peptide; for Relative concentration of IL-21: IFN-γ printed in place of LPS
Description: To determine whether inhibition of HIV replication by the peptide may be the result of induction of release of cytokines, cultured PBMCs were treated with one peptide embodiment of the present invention and, after 4 hr incubation, the medium was collected and assayed for changes in the amounts of 40 different cytokines. […] Approximately 3 million cells of frozen human PBMCs were thawed at 37° C. and transferred to a 50 mL conical tube where 8 mL of wash medium were added slowly. Then an additional 8 mL of wash medium were added and swirled to mix. The cells were then centrifuged at 330 g for 10 min, the supernatant was removed and the pellet was resuspended in 10 mL wash medium and centrifuged as above. The washed cells were then resuspended in RPMI-1640 medium containing 10% FBS to about 6 million cells per mL and 100 μL of the suspension were added into each well of a 96-well microtiter plate and incubated overnight at 37° C. in humidified 5% CO2. After 24 hr the medium was replaced with 200 μL fresh RPMI-1640 medium containing 10% FBS and incubated at 37° C. in humidified 5% CO2 for 2 days. For the data shown in TABLE 4, the peptide aliquot was then added to samples in duplicate at a final concentration of 100 nM and incubated at 37° C. in humidified 5% CO2 for 4 hr. For other experiments (data not included), the incubation was continued for 24 hr. The medium was then removed and stored at −80° C. The samples were analyzed for production of cytokines One set of control cells was not treated with an experimental agent.
Culture medium was removed for assay of cytokine levels with methods developed by RayBiotech, Inc. (Norcross, Ga.). In this technology, membrane arrays of antibodies against cytokines were incubated with samples of media. After washing, the array was incubated with a cocktail of all antibodies tagged with biotin. The membrane was then washed free of unbound antibodies and incubated with streptavidin labeled with a fluorescent dye. After a final wash, the membrane arrays were read in a fluorescence detector.

[3] = test system: macrophages in PBMC cultures; experiment: Phagocytosis of microspheres opsonized with anti-HIV antibodies; assay type: cell-based, human
Description: The ability of the peptide constructs to stimulate phagocytosis was assessed in two experiments. In the first experiment, a biotin-tagged peptide epitope of a surface protein of HIV-1 was bound to streptvidin on the surface of the beads. An antibody preparation that was raised against this epitope was then bound to the HIV peptide. The beads were then washed and presented to peripheral blood mononuclear cell (PBMC) cultures pretreated with peptides. […] In multiple control cultures, the number of beads within a macrophage-like cell ranged from 0 to 3. […] In the treated cultures, greater than 20 beads were counted in each phagocytic cell. After several subsequent and similar experiments were conducted, a phagocytic index was developed for the activity of macrophages to ingest microspheres opsonized with anti-HIV antibodies (TABLE 1).

[4] = test system: HIV-1 clade B (Strain SF162) and clade C (Strain 97ZA009); experiment: Inhibition of HIV replication (neutralization) in PBMCs, p24 immunoassay; assay type: cell-based; conditions: 10 nM, FIGS. 13A-B
Description: The ability of the peptides to inhibit replication of HIV, both alone and in combination with antibodies, was tested as follows. Approximately 3 million cells of frozen human PBMCs, obtained from the California Blood Bank system, were thawed at 37° C. and transferred to a 50 mL conical tube where 8 mL of wash medium were added slowly. Then an additional 8 mL of wash medium were added and swirled to mix. The cells were then centrifuged at 330 g for 10 min, the supernatant was removed and the pellet was resuspended in 10 mL wash medium and centrifuged as above. The washed cells were then resuspended in RPMI-B medium containing 10% FBS, phytohemagglutin was added to 5 μg/mL, and cells were incubated at 37° C. for 24 hr in humidified 5% CO2. Cells were washed, suspended to about 6 million cells per mL, and 50 μL, (about 250,000 viable cells) were added to each test well. Then 100 ↑L of the test peptide were added at a concentration sufficient to provide the desired final concentration, followed by 100 μL of virus suspension (100 median tissue culture infective doses (TCID50s)). The assay plate was incubated 3 days at 37° C., then washed 3 times to remove unbound virus, and the cells were again suspended to 250 μL of medium. After an additional 24 hr of incubation, cells were lysed with Triton X-100 and each sample was assayed by an enzyme-linked immunoassay for virus protein p24 to quantify neutralization of virus. In another set of samples, antibody preparations were also added at a desired concentration (i.e., in addition to peptide).
This peptide construct was assayed for activity with two strains of HIV, clade B (Strain SF162) and clade C (Strain 97ZA009), both of which were provided by the California Department of Public Health (Richmond, Calif.). HIV-1 clade B is the major strain in North America and HIV-1 clade C is the major strain in central and southern Africa, India and China. The peptide was assayed either alone (−) or in combination with serum from HIV-infected individuals (+), as outlined below in TABLE 3.
(SEQ ID NO:7). The short bars represent neutralization by peptide alone. The long bars represent neutralization when pooled serum from HIV-positive patients was added along with the peptide. The bars represent averages from two experiments, each performed in quadruplicate. In one set of experiments, each peptide was assayed at 10 nM for the ability to inhibit replication. In the absence of peptide, the antibody preparation (serum) provided only about 30% neutralization (inhibition), at the same dilution (data not shown).

[5] = test system: PBMC cultures; conditions: 72 hr, 1 mM, FIG. 15
Description: The ability of peptides to reduce viability of cells in PBMC cultures was assayed by adding a range of concentrations and testing viability by dye uptake. PBMC cultures were incubated with the peptides for 72 hr each at the increasing concentrations of 1 nM, 1 μM and 1 mM. Ability of cells to exclude a dye was an indication of viability as viable cells express green fluorescence and non-viable cells express orange fluorescence.

[6] = test system: peripheral blood mononuclear cells; experiment: Phagocytosis of opsonized microspheres by peptide-treated PBMCs (second experiment); assay type: cell-based, human; conditions: 50 nM peptide construct; interferon-gamma 100 ng/mL
Description: In a second experiment, streptavidin-coated microspheres, dyed with Dragon Green (0.97 μm diameter, Bangs Laboratories, Inc., Fishers, Ind.) were opsonized with rabbit anti-streptavidin serum (Sigma-Aldrich) and washed with phosphate buffered saline, pH 7.4 (PBS). Human PBMCs were cultured in microtiter plates in RPMI-1640 medium containing 10% fetal bovine serum (FBS) and 1:100 dilution of penicillin-streptomycin solution (Mediatech, Inc., Herndon, Va.) Cultures were washed to remove non-adherent cells, and fresh medium containing FBS, antibiotics, and 50 nM peptide was added to adherent cells for an additional 20 to 24 h. Microspheres were added at approximately a 10:1 ratio to total cells, and after an additional 30 to 60 min of incubation, a solution containing 2% formalin was added. […]
FIGS. 9A-I illustrate phagocytosis of opsonized microspheres by peptide-treated PBMCs. […] The experiment was quantified by counting the number of beads in the phagocytic cells (TABLE 2).
In order to establish that the bead-like material within the cells was indeed engulfed beads, fluorescence was examined. […] Cells were examined by both phase contrast microscopy (left panels) and fluorescence microscopy with blue excitation light (right panels). […]

## single sequence: peptide with 1 arm containing the core sequence HPSLK
[1]
  binding relative to the quadravalent peptide (set as 100%): much lesser extent

## VGGGS: peptide construct containing four copies of the core sequence VGGGS
[2]
  Relative concentration of ICAM-1: 89 arbitrary units
  Relative concentration of IL-1α: 291 arbitrary units
  Relative concentration of IL-2: 125 arbitrary units
  Relative concentration of IL-12p40: 51 arbitrary units
  Relative concentration of IL-15: 130 arbitrary units
  Relative concentration of IL-16: 10 arbitrary units
  Relative concentration of IL-17: 24 arbitrary units
  Relative concentration of IP-10: 321 arbitrary units
  Relative concentration of RANTES: 213 arbitrary units
  Relative concentration of TIMP-2: 205 arbitrary units
  Relative concentration of TNF-β: 111 arbitrary units
  Relative concentration of sTNF RII: 26 arbitrary units
[3]
  Phagocytosis Index: +++ (+++ = 15)
[4]
  inhibitory activity when assayed alone: substantial inhibitory activity
  level of inhibition with antibodies added: enhanced by adding antibodies

## PSSNA: peptide construct containing four copies of the core sequence PSSNA
[2]
  Relative concentration of IL-4: 60 arbitrary units
  Relative concentration of IL-8: 702 arbitrary units
  Relative concentration of IL-12p40: 28 arbitrary units
  Relative concentration of IL-12p70: 69 arbitrary units
  Relative concentration of IL-15: 153 arbitrary units
  Relative concentration of IL-16: 12 arbitrary units
  Relative concentration of IL-17: 21 arbitrary units
  Relative concentration of TNF-α: 123 arbitrary units
  Relative concentration of sTNF RII: 21 arbitrary units
  Relative concentration of IL-21: 130 arbitrary units
[3]
  Phagocytosis Index: +++ (+++ = 15)
[4]
  inhibitory activity when assayed alone: substantial inhibitory activity
  level of inhibition with antibodies added: enhanced by adding antibodies

## CC(C)C[C@H](NC(=O)[C@H](CO)NC(=O)[C@@H]1CCCN1C(=O)[C@@H](N)Cc1c[nH]cn1)C(=O)N[C@@H](CCCCN)C(=O)NCC(=O)NCC(=O)NCC(=O)N[C@@H](CO)C(=O)NCCCC[C@H](NC(=O)[C@H](CO)NC(=O)CNC(=O)CNC(=O)CNC(=O)[C@H](CCCCN)NC(=O)[C@H](CC(C)C)NC(=O)[C@H](CO)NC(=O)[C@@H]1CCCN1C(=O)[C@@H](N)Cc1c[nH]cn1)C(=O)NCCCC[C@H](NC(=O)[C@H](CCCCNC(=O)[C@H](CO)NC(=O)CNC(=O)CNC(=O)CNC(=O)[C@H](CCCCN)NC(=O)[C@H](CC(C)C)NC(=O)[C@H](CO)NC(=O)[C@@H]1CCCN1C(=O)[C@@H](N)Cc1c[nH]cn1)NC(=O)[C@H](CO)NC(=O)CNC(=O)CNC(=O)CNC(=O)[C@H](CCCCN)NC(=O)[C@H](CC(C)C)NC(=O)[C@H](CO)NC(=O)[C@@H]1CCCN1C(=O)[C@@H](N)Cc1c[nH]cn1)C(N)=O [HPSLK] (HELM PEPTIDE1{H.P.S.L.K.G.G.G.S.K.K.[am]}|PEPTIDE2{H.P.S.L.K.G.G.G.S.K}|PEPTIDE3{H.P.S.L.K.G.G.G.S}|PEPTIDE4{H.P.S.L.K.G.G.G.S}$PEPTIDE1,PEPTIDE4,10:R3-9:R2|PEPTIDE1,PEPTIDE2,11:R3-10:R2|PEPTIDE2,PEPTIDE3,10:R3-9:R2$$$V2.0)
[5]
  viability of cells in PBMC cultures: partially reduced viability

## VSNQH: peptide construct containing four copies of an inactive core sequence VSNQH, negative control (VNSQH) [reference compound]
[6]
  Beads/cell (mean ± SD): 1.3 ± 1.8

B1: Interferon-gamma: interferon-gamma, positive control (protein, UniProt P01579 24-161, looked up)
Interferon gamma: QDPYVKEAENLKKYFNAGHSDVADNGTLFLGILKNWKEESDRKIMQSQIVSFYFKLFKNFKDDQSIQKSVETIKEDMNVKFFNSNKKKRDDFEKLTNYSVTDLNVQRKAIHELIQVMAELSPAAKTGKRKRSQMLFRG
[6]
  Beads/cell (mean ± SD): 35.8 ± 12.6
[2]
  Relative concentration of IL-21: (IFN-γ: 100) arbitrary units
[3]
  Phagocytosis Index: +++ (+++ = 15)
